From publication PMC5303821, “Major sulfonate transporter Soa1 in Saccharomyces cerevisiae and considerable substrate diversity in its fungal family” (Nature Communications, 2017)

Tests used:
Soa1 (YIL166C) = molecular target: T1, Soa1 (YIL166C) (Saccharomyces cerevisiae, UniProt P40445); assay: growth rate of sul1 sul2 deletion strain (Monod fit), not direct uptake; type: cell-based; details: cell growth constant, not transport Km
T1 construct: full-length, native SOA1 locus, in sulfur-starved S. cerevisiae cells
T1 sequence (P40445 1-542): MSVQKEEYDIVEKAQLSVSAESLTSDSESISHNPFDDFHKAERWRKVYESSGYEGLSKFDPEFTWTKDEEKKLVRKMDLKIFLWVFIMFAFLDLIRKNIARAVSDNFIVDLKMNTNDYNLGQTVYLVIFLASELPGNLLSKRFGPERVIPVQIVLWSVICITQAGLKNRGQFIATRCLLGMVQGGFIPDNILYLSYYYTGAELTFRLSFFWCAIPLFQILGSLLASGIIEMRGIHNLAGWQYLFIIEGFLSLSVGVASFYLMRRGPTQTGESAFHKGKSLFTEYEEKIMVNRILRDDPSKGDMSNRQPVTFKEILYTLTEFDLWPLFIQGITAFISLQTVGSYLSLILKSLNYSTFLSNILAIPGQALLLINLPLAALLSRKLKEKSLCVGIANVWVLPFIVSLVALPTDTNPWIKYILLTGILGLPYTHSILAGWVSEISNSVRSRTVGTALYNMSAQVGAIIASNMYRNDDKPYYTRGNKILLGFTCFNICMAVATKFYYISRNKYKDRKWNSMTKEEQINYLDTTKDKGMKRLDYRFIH

[1] = substrate: O=S(=O)(O)O; assay: radiolabelled uptake in sulfur-starved cells; type: cell-based, Aspergillus nidulans; details: pH 6.5 Bis-Tris, 30 °C, 1 min uptake, labelled compound ([35S]), H+ symport, sul1 sul2 soa1 deletion background

## O=S(O)O [sulfite]
Soa1 (YIL166C); pH 6.5, sulfite as sole sulfur source
  Ks (half-velocity constant for growth): 67.4 ± 8.3 µM

## O=S(=O)(O)S [thiosulfate]
Soa1 (YIL166C); pH 6.5, thiosulfate as sole sulfur source
  Ks (half-velocity constant for growth): 75.8 ± 6.0 µM

B1: AstA (Aspergillus nidulans) (protein)
chain: MADYKSTNPTVENKDDVAVPEYVIDWTLEEETKAKRKLDLMIMPILTLGFFCLQLDRGNMANAITDNFMEDVGINQDQFNVGQQMLSLGIVLTEIPSNMILYRVGPGKWLTLQLFLFGIVSTFQAFQRGYGAFIATRFLLGITESGFIPGGLWTLSTWYTRDETAKRVMIFYFGNQIGQASAKLLAYGILHMRGVGGQSGWFWLFALMGSFTVFSGFIFGFFLLDSFKNPHSTFLPKMSRFTERELHILQTRVLLDDPMKGKKKRKIGLGAFKRAFTDWRIWVHFLITLSNNGPQRAFDTYAPSIVTSFGFGRLVSNAMAAVGLFLQVPVSFAFSWVSDHYNRRGETVMLGFFCHLLGYIFNRTFTDVNLRGVRYFGVVWTQTFGTFSHPLNIAWLSLTCKDSEQRALAMAGVIMNANIAGIYGAQIFRSDDKPLYRRGFSVALSVLAVGLVLAIVRYVDTMIHRRRKLQAVEDGSEQDTDADHKLT
notes: full-length, codon-optimized synthetic gene in SOA1 locus of S. cerevisiae sul1 sul2 soa1 deletion strain
[1]
  Km: 7.50 ± 0.53 µM
